Laboratory results published in article PMC8699473, “An Easily Expandable Multi-Drug LC-MS Assay for the Simultaneous Quantification of 57 Oral Antitumor Drugs in Human Plasma” (Cancers, 2021).

Assay: Long-term stability in spiked pooled human plasma

Row | SMILES | Long-term stability, 1 month, -20°C Accuracy [%] (validation standard 2xLLOV) | Long-term stability, 1 month, -80°C Accuracy [%] (validation standard 2xLLOV) | Long-term stability, 2 month, -20°C Accuracy [%] (validation standard 2xLLOV) | Long-term stability, 2 month, -80°C Accuracy [%] (validation standard 2xLLOV) | Long-term stability, 3 month, -20°C Accuracy [%] (validation standard 2xLLOV) | Long-term stability, 3 month, -80°C Accuracy [%] (validation standard 2xLLOV) | Long-term stability, 6 weeks, 4°C, without daylight Accuracy [%] (validation standard 2xLLOV) | Long-term stability, 1 month, -20°C Accuracy [%] (validation standard MOV) | Long-term stability, 1 month, -80°C Accuracy [%] (validation standard MOV) | Long-term stability, 2 month, -20°C Accuracy [%] (validation standard MOV) | Long-term stability, 2 month, -80°C Accuracy [%] (validation standard MOV) | Long-term stability, 3 month, -20°C Accuracy [%] (validation standard MOV) | Long-term stability, 3 month, -80°C Accuracy [%] (validation standard MOV) | Long-term stability, 6 weeks, 4°C, without daylight Accuracy [%] (validation standard MOV) | Long-term stability, 1 month, -20°C Accuracy [%] (validation standard ULOV) | Long-term stability, 1 month, -80°C Accuracy [%] (validation standard ULOV) | Long-term stability, 2 month, -20°C Accuracy [%] (validation standard ULOV) | Long-term stability, 2 month, -80°C Accuracy [%] (validation standard ULOV) | Long-term stability, 3 month, -20°C Accuracy [%] (validation standard ULOV) | Long-term stability, 3 month, -80°C Accuracy [%] (validation standard ULOV) | other results
1 | Nc1cccc2c1CN(C1CCC(=O)NC1=O)C2=O (centres unmarked) [Lenalidomide] | 112.2% | 103.2% | 97.9% | 104.0% | 99.5% | 104.1% | 15.8% | 93.9% | 93.9% | 101.8% | 104.0% | 92.9% | 96.0% | 19.7% | 92.6% | 88.5% | 95.8% | 98.8% | 89.8% | 94.4% | Long-term stability, 1 month, -20°C Accuracy [%] (validation standard LLOV): 104.5%; Long-term stability, 1 month, -80°C Accuracy [%] (validation standard LLOV): 96.6%; Long-term stability, 2 month, -20°C Accuracy [%] (validation standard LLOV): 52.8%; Long-term stability, 2 month, -80°C Accuracy [%] (validation standard LLOV): 56.2%; Long-term stability, 3 month, -20°C Accuracy [%] (validation standard LLOV): 69.1%; Long-term stability, 3 month, -80°C Accuracy [%] (validation standard LLOV): 82.4%; Long-term stability, 6 weeks, 4°C, without daylight Accuracy [%] (validation standard ULOV): 16.2%
2 | COc1cc2nccc(Oc3ccc(NC(=O)NC4CC4)c(Cl)c3)c2cc1C(N)=O [Lenvatinib] | 99.7% | 94.9% | 97.0% | 100.9% | 103.0% | 104.8% | 105.2% | 95.8% | 94.5% | 98.2% | 97.2% | 99.7% | 100.5% | 107.3% | 96.4% | 94.7% | 101.7% | 101.9% | 98.3% | 100.8% | Long-term stability, 1 month, -20°C Accuracy [%] (validation standard LLOV): 109.4%; Long-term stability, 1 month, -80°C Accuracy [%] (validation standard LLOV): 107.0%; Long-term stability, 2 month, -20°C Accuracy [%] (validation standard LLOV): 102.7%; Long-term stability, 2 month, -80°C Accuracy [%] (validation standard LLOV): 108.7%; Long-term stability, 3 month, -20°C Accuracy [%] (validation standard LLOV): 105.7%; Long-term stability, 3 month, -80°C Accuracy [%] (validation standard LLOV): 110.3%; Long-term stability, 6 weeks, 4°C, without daylight Accuracy [%] (validation standard LLOV): 127.4%; Long-term stability, 6 weeks, 4°C, without daylight Accuracy [%] (validation standard ULOV): 101.9%
3 | CO[C@@H]1[C@H](N(C)C(=O)c2ccccc2)C[C@H]2O[C@]1(C)n1c3ccccc3c3c4c(c5c6ccccc6n2c5c31)C(=O)NC4 [Midostaurin] | 105.5% | 106.8% | 106.0% | 108.5% | 97.1% | 106.8% | 94.2% | 105.8% | 108.1% | 113.7% | 116.3% | 102.0% | 102.9% | 103.5% | 107.3% | 103.4% | 118.6% | 111.4% | 93.8% | 107.0% | Long-term stability, 1 month, -20°C Accuracy [%] (validation standard LLOV): 109.4%; Long-term stability, 1 month, -80°C Accuracy [%] (validation standard LLOV): 106.4%; Long-term stability, 2 month, -20°C Accuracy [%] (validation standard LLOV): 106.5%; Long-term stability, 2 month, -80°C Accuracy [%] (validation standard LLOV): 101.2%; Long-term stability, 3 month, -20°C Accuracy [%] (validation standard LLOV): 102.8%; Long-term stability, 3 month, -80°C Accuracy [%] (validation standard LLOV): 112.8%; Long-term stability, 6 weeks, 4°C, without daylight Accuracy [%] (validation standard LLOV): 102.3%; Long-term stability, 6 weeks, 4°C, without daylight Accuracy [%] (validation standard ULOV): 97.3%
4 | CCOc1cc2ncc(C#N)c(Nc3ccc(OCc4ccccn4)c(Cl)c3)c2cc1NC(=O)/C=C/CN(C)C [Neratinib] | 79.9% | 84.9% | 67.5% | 94.6% | 70.3% | 90.2% | 7.4% | 82.9% | 84.6% | 81.2% | 92.9% | 79.5% | 92.5% | 10.0% | 79.7% | 78.2% | 82.8% | 88.3% | 75.5% | 91.8% | Long-term stability, 1 month, -20°C Accuracy [%] (validation standard LLOV): 66.9%; Long-term stability, 1 month, -80°C Accuracy [%] (validation standard LLOV): 71.8%; Long-term stability, 2 month, -20°C Accuracy [%] (validation standard LLOV): 77.1%; Long-term stability, 2 month, -80°C Accuracy [%] (validation standard LLOV): 88.3%; Long-term stability, 3 month, -20°C Accuracy [%] (validation standard LLOV): 50.3%; Long-term stability, 3 month, -80°C Accuracy [%] (validation standard LLOV): 81.4%; Long-term stability, 6 weeks, 4°C, without daylight Accuracy [%] (validation standard ULOV): 8.5%
5 | COC(=O)c1ccc2c(c1)NC(=O)/C2=C(\Nc1ccc(N(C)C(=O)CN2CCN(C)CC2)cc1)c1ccccc1 [Nintedanib] | 97.2% | 98.9% | 103.8% | 99.7% | 90.3% | 91.1% | 94.4% | 95.5% | 91.4% | 98.9% | 99.7% | 97.2% | 94.7% | 94.4% | 94.5% | 87.4% | 97.0% | 94.8% | 92.9% | 91.8% | Long-term stability, 1 month, -20°C Accuracy [%] (validation standard LLOV): 102.0%; Long-term stability, 1 month, -80°C Accuracy [%] (validation standard LLOV): 102.1%; Long-term stability, 2 month, -20°C Accuracy [%] (validation standard LLOV): 96.9%; Long-term stability, 2 month, -80°C Accuracy [%] (validation standard LLOV): 94.3%; Long-term stability, 3 month, -20°C Accuracy [%] (validation standard LLOV): 88.2%; Long-term stability, 3 month, -80°C Accuracy [%] (validation standard LLOV): 88.3%; Long-term stability, 6 weeks, 4°C, without daylight Accuracy [%] (validation standard LLOV): 86.6%; Long-term stability, 6 weeks, 4°C, without daylight Accuracy [%] (validation standard ULOV): 85.9%
6 | C=CC(=O)Nc1cc(Nc2nccc(-c3cn(C)c4ccccc34)n2)c(OC)cc1N(C)CCN(C)C [Osimertinib] | 95.2% | 93.2% | 89.2% | 103.9% | 82.8% | 100.0% | 10.5% | 97.0% | 96.6% | 95.2% | 101.6% | 90.9% | 101.8% | 53.4% | 92.3% | 93.2% | 91.4% | 101.4% | 88.6% | 93.8% | Long-term stability, 1 month, -20°C Accuracy [%] (validation standard LLOV): 83.0%; Long-term stability, 1 month, -80°C Accuracy [%] (validation standard LLOV): 86.9%; Long-term stability, 2 month, -20°C Accuracy [%] (validation standard LLOV): 84.8%; Long-term stability, 2 month, -80°C Accuracy [%] (validation standard LLOV): 96.9%; Long-term stability, 3 month, -20°C Accuracy [%] (validation standard LLOV): 66.7%; Long-term stability, 3 month, -80°C Accuracy [%] (validation standard LLOV): 91.8%; Long-term stability, 6 weeks, 4°C, without daylight Accuracy [%] (validation standard LLOV): 5.4%; Long-term stability, 6 weeks, 4°C, without daylight Accuracy [%] (validation standard ULOV): 41.5%
7 | Cc1ccc(Nc2nccc(N(C)c3ccc4c(C)n(C)nc4c3)n2)cc1S(N)(=O)=O [Pazopanib] | 99.1% | 95.8% | 100.4% | 103.8% | 106.9% | 104.8% | 96.5% | 96.3% | 95.8% | 98.8% | 98.1% | 103.3% | 103.3% | 109.7% | 97.3% | 93.0% | 98.8% | 98.3% | 98.1% | 100.0% | Long-term stability, 1 month, -20°C Accuracy [%] (validation standard LLOV): 102.3%; Long-term stability, 1 month, -80°C Accuracy [%] (validation standard LLOV): 97.4%; Long-term stability, 2 month, -20°C Accuracy [%] (validation standard LLOV): 106.7%; Long-term stability, 2 month, -80°C Accuracy [%] (validation standard LLOV): 108.3%; Long-term stability, 3 month, -20°C Accuracy [%] (validation standard LLOV): 103.9%; Long-term stability, 3 month, -80°C Accuracy [%] (validation standard LLOV): 103.6%; Long-term stability, 6 weeks, 4°C, without daylight Accuracy [%] (validation standard LLOV): 99.0%; Long-term stability, 6 weeks, 4°C, without daylight Accuracy [%] (validation standard ULOV): 98.9%
8 | Cc1ccc(C(=O)Nc2ccc(CN3CCN(C)CC3)c(C(F)(F)F)c2)cc1C#Cc1cnc2cccnn12 [Ponatinib] | 99.2% | 94.7% | 95.8% | 97.8% | 93.4% | 98.9% | 91.7% | 92.3% | 93.7% | 99.2% | 101.1% | 95.0% | 95.3% | 97.9% | 95.0% | 90.8% | 97.0% | 100.1% | 93.8% | 93.5% | Long-term stability, 6 weeks, 4°C, without daylight Accuracy [%] (validation standard ULOV): 89.4%
